Measurements as given in ChEMBL document CHEMBL6127052, “Discovery of membrane-targeting amphiphilic honokiol derivatives containing an oxazolethione moiety to combat methicillin-resistant Staphylococcus aureus (MRSA) infections” (Eur J Med Chem, 2024).
Active and inactive are the calls of the source. The rule behind the calls is not given here.

Key:
Staphylococcus aureus [1] = assay: Induction of cell membrane damage in methicillin-resistant Staphylococcus aureus clinical isolate M12 assessed as increase in red fluorescence at 8 times MIC incubated for 4 hrs by DAPI/PI staining based analysis; format: functional, organism-based
[2] = Toxicity in KM mouse assessed as change in albumin level at 20 mg/kg, sc measured after 24 hrs; format: organism-based; conditions: in vivo
Staphylococcus aureus [3] = assay: Antibacterial activity against methicillin-resistant Staphylococcus aureus clinical isolate M12 infected in KM mouse assessed as decrease in bacterial load in skin tissues at 5 mg/kg, sc measured after 24 hrs by drop-plate counting method (reference value: 6.7); format: functional
Staphylococcus aureus [4] = assay: Antibacterial activity against methicillin-resistant Staphylococcus aureus clinical isolate M12 infected in sepsis BALB/c mouse model assessed as decrease in pathological change in red medulla of spleen at 12 mg/kg, ip administered consecutively at 12 hr-interval for 24 hrs measured after 24 hrs post-last dose by H and E staining based analysis; format: functional, organism-based; conditions: time 48.0 hrs
[5] = Toxicity in KM mouse assessed as clear skin section at 20 mg/kg, sc measured after 24 hrs by H and E staining based analysis; format: organism-based; conditions: in vivo
[6] = Toxicity in KM mouse assessed as pathological change in kidney at 20 mg/kg, sc measured after 24 hrs by H and E staining based analysis; format: organism-based; conditions: in vivo
Staphylococcus aureus [7] = assay: Bactericidal activity against methicillin-resistant Staphylococcus aureus clinical isolate M12 infected in KM mouse assessed as decrease in inflammatory cells in dermis at 10 mg/kg, sc measured after 24 hrs; format: functional, organism-based
Staphylococcus aureus [8] = assay: Antibacterial activity against methicillin-resistant Staphylococcus aureus clinical isolate M12 infected in KM mouse assessed as decrease in bacterial load in skin tissues at 10 mg/kg, sc measured after 24 hrs by drop-plate counting method (reference value: 6.7); format: functional; set-up: scale not given: the % may be the effect or the level left
Staphylococcus aureus [9] = assay: Disruption of cell membrane in methicillin-resistant Staphylococcus aureus clinical isolate M12 assessed as fold increase in protein leakage at 8 times MIC incubated for 4 hrs by BCA assay relative to control; format: functional
[10] = Toxicity in KM mouse assessed as formation of hard lumps at administration site at >40 mg/kg, sc; format: organism-based; conditions: in vivo
Staphylococcus aureus [11] = assay: Bactericidal activity against methicillin-resistant Staphylococcus aureus clinical isolate M12 infected in KM mouse assessed as decrease in inflammatory cells in epidermis at 10 mg/kg, sc measured after 24 hrs; format: functional, organism-based
[12] = Toxicity in KM mouse assessed as change in HCT level at 20 mg/kg, sc measured after 24 hrs; format: organism-based; conditions: in vivo
Staphylococcus aureus [13] = assay: Antibacterial activity against methicillin-resistant Staphylococcus aureus clinical isolate M23 by CLSI based micro-broth dilution method; format: functional
Staphylococcus aureus [14] = assay: Bactericidal activity against Staphylococcus aureus ATCC 29213 at 8 times MIC incubated upto 8 hrs by time-kill assay; format: functional, organism-based
Staphylococcus aureus [15] = assay: Antibacterial activity against methicillin-resistant Staphylococcus aureus clinical isolate M12 incubated for 16 to 18 hrs in presence of phosphatidylglycerol; format: functional; conditions: time 16-18 hrs
Staphylococcus aureus [16] = assay: Antibacterial activity against methicillin-resistant Staphylococcus aureus clinical isolate M12 infected in sepsis BALB/c mouse model assessed as decrease in necrosis in hepatocytes at 6 mg/kg, ip administered consecutively at 12 hr-interval for 24 hrs measured after 24 hrs post-last dose by H and E staining based analysis; format: functional, organism-based; conditions: time 48.0 hrs
Staphylococcus aureus [17] = assay: Antibacterial activity against methicillin-resistant Staphylococcus aureus clinical isolate M12 incubated for 16 to 18 hrs in presence of cardiolipin; format: functional; conditions: time 16-18 hrs
Staphylococcus aureus [18] = assay: Antibacterial activity against methicillin-resistant Staphylococcus aureus clinical isolate M12 infected in KM mouse assessed as reduction in TNF-alpha level at infection site at 10 mg/kg, sc measured after 24 hrs by ELISA; format: functional
[19] = Toxicity in KM mouse assessed as degeneration in cardiac muscle fibers at 20 mg/kg, sc measured after 24 hrs by H and E staining based analysis; format: organism-based; conditions: in vivo
[20] = Toxicity in KM mouse assessed as mental abnormality at 5 to 80 mg/kg, sc; format: organism-based; conditions: in vivo, dose 5-80 mg/kg
Staphylococcus aureus [21] = assay: Antibacterial activity against methicillin-resistant Staphylococcus aureus clinical isolate M12 infected in KM mouse assessed as decrease in neutrophils at subcutaneous tissues at 5 to 10 mg/kg, sc measured after 24 hrs; format: functional, organism-based; conditions: dose 5-10 mg/kg
Staphylococcus aureus [22] = assay: Antibacterial activity against methicillin-resistant Staphylococcus aureus clinical isolate M12 infected in KM mouse assessed as reduction in TNF-alpha level at infection site at 5 mg/kg, sc measured after 24 hrs by ELISA; format: functional
[23] = Toxicity in BALB/c mouse assessed as loss of lustrous hair at 40 mg/kg, ip bid for 7 days; format: organism-based; conditions: in vivo, 168 h, time 7 day
[24] = Toxicity in KM mouse assessed as adverse effect at 20 mg/kg, sc; format: organism-based; conditions: in vivo
[25] = Toxicity in KM mouse assessed as inflammatory cells in skin section at 20 mg/kg, sc measured after 24 hrs by H and E staining based analysis; format: organism-based; conditions: in vivo
[26] = Toxicity in BALB/c mouse assessed as edema in hepatocytes at 15 mg/kg, ip bid for 7 days; format: organism-based; conditions: in vivo, 168 h, time 7 day
[27] = Toxicity in KM mouse assessed as smooth skin at <20 mg/kg, sc; format: organism-based; conditions: in vivo
[28] = Toxicity in KM mouse assessed as edema in renal tubular epithelial cells at 20 mg/kg, sc measured after 24 hrs by H and E staining based analysis; format: organism-based; conditions: in vivo
[29] = Toxicity in BALB/c mouse assessed as feeding abnormality at <15 mg/kg, ip bid for 7 days; format: organism-based; conditions: in vivo, 168 h, time 7 day
[30] = Toxicity in BALB/c mouse assessed as degeneration of hepatocytes at 15 mg/kg, ip bid for 7 days; format: organism-based; conditions: in vivo, 168 h, time 7 day
[31] = Toxicity in KM mouse assessed as pathological change in liver at 20 mg/kg, sc measured after 24 hrs by H and E staining based analysis; format: organism-based; conditions: in vivo
Staphylococcus aureus [32] = assay: Bactericidal activity against Staphylococcus aureus ATCC 29213 at 8 times MIC incubated for 6 hrs by time-kill assay relative to control; format: functional
[33] = Toxicity in KM mouse assessed as degeneration of renal tubular epithelial cells at 20 mg/kg, sc measured after 24 hrs by H and E staining based analysis; format: organism-based; conditions: in vivo
Staphylococcus aureus [34] = assay: Induction of morphological changes in methicillin-resistant Staphylococcus aureus clinical isolate M12 assessed as rupture of bacterial bodies at 8 times MIC incubated for 4 hrs by SEM analysis; format: functional, organism-based
[35] = Toxicity in KM mouse assessed as necrosis in cardiac muscle fibers at 20 mg/kg, sc measured after 24 hrs by H and E staining based analysis; format: organism-based; conditions: in vivo
[36] = Hemolytic activity in sheep erythrocytes incubated for 1 hr by absorbance based assay; format: toxicity, cell-based, Ovis aries, Erythrocyte
[37] = Toxicity in KM mouse assessed as formation of small erythema at administration site at >40 mg/kg, sc; format: organism-based; conditions: in vivo
Staphylococcus aureus [38] = assay: Antibacterial activity against methicillin-resistant Staphylococcus aureus clinical isolate M12 infected in sepsis BALB/c mouse model assessed as decrease in deformation of hepatocytes at 6 mg/kg, ip administered consecutively at 12 hr-interval for 24 hrs measured after 24 hrs post-last dose by H and E staining based analysis; format: functional, organism-based; conditions: time 48.0 hrs
Staphylococcus aureus [39] = assay: Antibacterial activity against methicillin-resistant Staphylococcus aureus clinical isolate M12 incubated for 16 to 18 hrs in presence of phosphatidylethanolamine; format: functional; conditions: time 16-18 hrs

**Q.** Which Activity (Staphylococcus aureus [1]) does the source give for `C=CCc1cc(-c2ccc(OCCC[N+](C)(C)CC(=O)NCCCC)c(CC=C)c2)c2oc(=S)n(Cc3ccc(F)cc3)c2c1.[Br-]` here?
**A.** Active

**Q.** What about the Activity [2] of the same compound?
**A.** Non-Toxic

**Q.** What about the Activity (Staphylococcus aureus [3]) of the same compound?
**A.** 1.4 log10CFU/g

**Q.** And the Activity (Staphylococcus aureus [4])?
**A.** Active

**Q.** And the Activity [5]?
**A.** Non-Toxic

**Q.** And the Activity [6]?
**A.** Non-Toxic

**Q.** What about the Activity (Staphylococcus aureus [7]) of the same compound?
**A.** Active

**Q.** What about the Activity (Staphylococcus aureus [8]) of the same compound?
**A.** 4.1%

**Q.** What about the “fold change (FC)” value (Staphylococcus aureus [9]) of the same compound?
**A.** ~4

**Q.** And the Activity [10]?
**A.** Toxic

**Q.** And the Activity (Staphylococcus aureus [11])?
**A.** Active

**Q.** And the Activity [12]?
**A.** Non-Toxic

**Q.** What about the MIC (Staphylococcus aureus [13]) of the same compound?
**A.** 2 µg/mL

**Q.** And the Activity (Staphylococcus aureus [14])?
**A.** Active

**Q.** And the MIC (Staphylococcus aureus [15])?
**A.** 128 µg/mL

**Q.** What about the Activity (Staphylococcus aureus [16]) of the same compound?
**A.** inactive

**Q.** And the MIC (Staphylococcus aureus [17])?
**A.** 32 µg/mL

**Q.** What about the Activity (Staphylococcus aureus [18]) of the same compound?
**A.** 102.6 pg/mL

**Q.** What about the Activity [19] of the same compound?
**A.** Non-Toxic

**Q.** What about the Activity [20] of the same compound?
**A.** Non-Toxic

**Q.** And the Activity (Staphylococcus aureus [21])?
**A.** Active

**Q.** And the Activity (Staphylococcus aureus [22])?
**A.** 91.5 pg/mL

**Q.** And the Activity [23]?
**A.** Toxic

**Q.** What about the Activity [24] of the same compound?
**A.** Non-Toxic

**Q.** And the Activity [25]?
**A.** Non-Toxic

**Q.** And the Activity [26]?
**A.** Non-Toxic

**Q.** What about the Activity [27] of the same compound?
**A.** Non-Toxic

**Q.** What about the Activity [28] of the same compound?
**A.** Non-Toxic

**Q.** What about the Activity [29] of the same compound?
**A.** Non-Toxic

**Q.** And the Activity [30]?
**A.** Non-Toxic

**Q.** And the Activity [31]?
**A.** Non-Toxic

**Q.** And the Activity (Staphylococcus aureus [32])?
**A.** 100%

**Q.** What about the Activity [33] of the same compound?
**A.** Non-Toxic

**Q.** What about the Activity (Staphylococcus aureus [34]) of the same compound?
**A.** Active

**Q.** And the Activity [35]?
**A.** Non-Toxic

**Q.** What about the HC50 at 1 h [36] of the same compound?
**A.** 157 µg/mL

**Q.** What about the Activity [37] of the same compound?
**A.** Toxic

**Q.** What about the Activity (Staphylococcus aureus [38]) of the same compound?
**A.** inactive

**Q.** And the MIC (Staphylococcus aureus [39])?
**A.** 2 µg/mL
